Reference: paper PMC2603313, “Direct Inhibition of GSK3β by the Phosphorylated Cytoplasmic Domain of LRP6 in Wnt/β-Catenin Signaling” (PLoS ONE, 2008)
Entries after “also recorded” stand apart in the source; their conditions may differ. Ends that are not written are not given here.

B1: Axin fragment: His-tagged Axin fragment (residues 512–650) including the GBD and the β-catenin binding domain (protein, UniProt O35625 512-650, looked up, fragment)
chain: GKHVPKLGLKLDTAGLHHHRHVHHHVHHNSARPKEQMEAEVARRVQSSFSWGPETHGHAKPRSYSENAGTTLSAGDLAFGGKTSAPSKRNTKKAESGKNANAEVPSTTEDAEKNQKIMQWIIEGEKEISRHRKAGHGSS
modifications: His tag

Columns and labels:
[1] = tested on: A549 cells; test: Western blot of β-catenin in transfected A549 cells; assay type: cell-based; settings: GFP fusion, 24 h
Source text: (§1) Figure 1 LRP6 constructs and their cytoplasmic overexpression in cell. (A) Schematic representation of the full-length LRP6 and amino acid sequences of LRP6 intracellular fragments used in this study. The Ser/Thr rich cluster and PPPSPxS motif are underlined in each sequence. Phosphorylated residues are highlighted. (B) Cytosolic overexpression of the LRP6 constructs. A549 cells in which control (empty vector, EV, encoding only GFP), miniCL and miniCLMT were transfected as GFP fusion proteins. Control, miniCL and miniCLMT were detected through the green fluorescence from GFP. β-Catenin was detected using an anti-β-catenin antibody, and the nuclei were detected by DAPI staining. […] Endogenous β-catenin was detected by an anti-β-catenin antibody. p-GS indicates the level of the phosphorylated GS by GSK3β, detected by anti-glycogen synthase (Ser641) antibody. p-S9-GSK3β indicates the phosphorylated Ser9 of GSK3β, and was detected by anti-phospho GSK3β (Ser9) antibody. Levels of transfected proteins were detected using monoclonal GFP antibody, indicated by GFP. Total cellular levels of GS and GSK3β were measured by anti-GS antibody and anti-GSK3β antibody, which are indicated by t-GS and t-GSK3β, respectively. […] (D) Activation of Wnt/β-catenin signaling, which was measured by the Top-flash luciferase activity. […] The luciferase activities were measured after 24 h of the transfection. […]

[2] = tested on: HepG2 cells; test: β-Catenin immunofluorescence in transfected HepG2 cells; assay type: cell-based; settings: GFP fusion
Description: (§2) pEGFP-miniCL and pEGFP-miniCLMT vectors were transfected into A549 cells and HepG2 cells using jetpei according to the manufacturer's protocol (Polyplus transfection). In brief, 2 µg of DNA and jetpei mixtures were added to A549 cells and HepG2 cell and incubated for 3 h under serum-free conditions, and then equal volumes of DMEM containing 20% serum were added. After 24 h incubation, cells were harvested using RIPA (containing protease cocktail). Subsequently, 20 µg of protein lysates were applied to SDS-PAGE. After transferring the proteins to a PVDF membrane, samples were incubated with the appropriate antibodies, according to standard western blot protocol.
Transfected cells were fixed with 100% methanol for 20 min at −20°C. After washing with PBS and subsequent blocking with blocking buffer (PBS+0.05% BSA), fixed cells were incubated with anti-β-catenin antibody for 2 h at room temperature. […] After washing with PBS, expression of β-catenin, GFP, and DAPI were analyzed using fluorescence microscopy.
Supplementary file pone.0004046.s001.tif: Figure S1 Cytosolic overexpression of the LRP6 constructs in HepG2 cells. […] Control, miniCL and miniCLMT were detected through the green fluorescence from GFP. β-Catenin was detected using an anti-β-catenin antibody, and the nuclei were detected by DAPI staining. […]

[3] = tested on: HepG2 cells; test: Western blot of β-catenin in transfected HepG2 cells; assay type: cell-based; settings: GFP fusion, 24 h
Description: as §2
Supplementary file pone.0004046.s002.tif: Figure S2 Western blotting analysis from the transfected HepG2 cells. Labels at the left side of blots indicate the antibody used for detection of the corresponding protein. The endogenous β-catenin level was detected by an anti-β-catenin antibody. p-GS indicates the level of the phosphorylated GS by GSK3β, detected by anti-glycogen synthase (Ser641) antibody. p-S9-GSK3β indicates the phosphorylated Ser9 of GSK3β, and was detected by anti-phospho GSK3β (Ser9) antibody. Levels of transfected proteins were detected using monoclonal GFP antibody, indicated by GFP. Pan-Ras is shown as a loading control. (0.05 MB TIF) Click here for additional data file.

[4] = target: T1, GSK3β (Mus musculus, UniProt Q9WV60); test: Far western binding of GSK3β to miniCL in presence of Axin GBD; settings: phosphorylated GST-miniCL; GSK3β 0.1 µg/ml; GST-Axin GBD 0, 10 µM; three independent experiments
T1 construct: The catalytic domains of mouse GSK3β (residues 27–393) and CK1ε (residues 1–319) were expressed and purified; made in house
T1 sequence (Q9WV60 27-393): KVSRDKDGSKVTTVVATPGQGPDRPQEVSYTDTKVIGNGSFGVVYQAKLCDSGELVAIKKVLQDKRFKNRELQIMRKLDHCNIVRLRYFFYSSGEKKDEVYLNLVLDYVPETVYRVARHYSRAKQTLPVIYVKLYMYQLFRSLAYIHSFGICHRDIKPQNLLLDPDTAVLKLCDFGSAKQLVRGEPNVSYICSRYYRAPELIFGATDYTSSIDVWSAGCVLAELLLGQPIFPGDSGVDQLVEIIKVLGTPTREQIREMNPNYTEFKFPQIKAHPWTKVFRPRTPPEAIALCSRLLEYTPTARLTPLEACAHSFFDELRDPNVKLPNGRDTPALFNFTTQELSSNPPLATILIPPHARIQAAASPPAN
Description: Figure 4 Phosphorylation-dependent binding of the LRP6 intracellular region to GSK3β in the absence and presence of Axin. (A) GST (Lane 1), GST-fused miniCL (Lane 3; GST-miniCL), GST-fused miniCLMT (Lane 5; GST-miniCLMT), and their phosphorylated forms (Lanes 2, 4, 6; indicated by “phos”) were loaded onto an SDS-polyacrylamide gel, and then transferred to PVDF membrane (Left top). […] The phosphorylated protein bands show an upshifted mobility on the gel. The PVDF membrane was incubated with 1 µg/ml of GSK3β to allow GSK3β to bind to the proteins in the membrane. The bound GSK3β was visualized on the transferred proteins by western blotting using an anti-GSK3β antibody (Left bottom), and the GSK3β protein used to obtain the phosphorylated forms of each protein is indicated by GSK3β*. The band intensities of bound GSK3β were measured from the three independent experiments (Right). […] The phosphorylated GST-fused miniCL was transferred to PVDF membrane, and the membrane was incubated with GSK3β (0.1 µg/ml) and GST-fused Axin GBD domain protein (0, 10 µM). Error bars indicate the standard deviation from three independent experiments. […]
GST-fusion proteins (GST-miniCL, GST-miniCLMT, GST-PPPSPxS, GST-PPPAPxS) were subjected to SDS-PAGE and transferred to a PVDF membrane. […] The binding of GSK3β was detected with rabbit anti-GSK3β antibody and secondary HRP-conjugated goat anti-rabbit IgG (Pierce).

[5] = tested on: Wnt/β-catenin signaling; test: TOP-flash luciferase assay in 293 cells; assay type: cell-based; settings: 24 h after transfection, 4 independent experiments, p<0.01 vs empty vector and vs miniCLMT
Source text: as §1

[6] = tested on: A549 cells; test: β-Catenin immunofluorescence in transfected A549 cells; assay type: cell-based; settings: GFP fusion
Source text: as §1

[7] = tested on: GSK3β; test: Western blot of GSK3β phosphorylated at Ser9 in transfected A549 cells; assay type: cell-based; settings: GFP fusion
Source text: as §1

[8] = tested on: glycogen synthase; test: Western blot of phosphorylated glycogen synthase (Ser641) in transfected A549 cells; assay type: cell-based; settings: GFP fusion, anti-glycogen synthase (Ser641)
Source text: as §1

[9] = tested on: LRP6 miniCL; test: Far western binding of Axin fragment to LRP6 miniCL with GSK3β; parameters: species or system human; settings: GST-miniCL 15 µg on PVDF; GSK3β 2 µg/ml and/or His-Axin 12 µg/ml
Description: Figure 4 Phosphorylation-dependent binding of the LRP6 intracellular region to GSK3β in the absence and presence of Axin. (A) GST (Lane 1), GST-fused miniCL (Lane 3; GST-miniCL), GST-fused miniCLMT (Lane 5; GST-miniCLMT), and their phosphorylated forms (Lanes 2, 4, 6; indicated by “phos”) were loaded onto an SDS-polyacrylamide gel, and then transferred to PVDF membrane (Left top). […] The phosphorylated protein bands show an upshifted mobility on the gel. The PVDF membrane was incubated with 1 µg/ml of GSK3β to allow GSK3β to bind to the proteins in the membrane. The bound GSK3β was visualized on the transferred proteins by western blotting using an anti-GSK3β antibody (Left bottom), and the GSK3β protein used to obtain the phosphorylated forms of each protein is indicated by GSK3β*. The band intensities of bound GSK3β were measured from the three independent experiments (Right). […] The phosphorylated GST-fused miniCL was transferred to PVDF membrane, and the membrane was incubated with GSK3β (0.1 µg/ml) and GST-fused Axin GBD domain protein (0, 10 µM). Error bars indicate the standard deviation from three independent experiments. (C) GSK3β mediates the binding of an Axin fragment to LRP6 miniCL region. […]

Molecule	β-catenin level (western blot) [1]	Total cellular β-catenin and nuclear translocation [2]	β-catenin level (western blot) [3]	Effect of Axin GBD on GSK3β binding to miniCL [4]	TOP-flash luciferase activity [5]	Total cellular β-catenin and nuclear translocation [6]	Phosphorylation of Ser9 in GSK3β [7]	Phosphorylation of glycogen synthase (p-GS) [8]	Binding to LRP6 miniCL [9]
miniCL: LRP6 miniCL (residues 1470–1510 of human LRP6), GFP fusion in cells (SSSSSSTKGTYFPAILNPPPSPATERSHYTMEFGYSSNSPS; not fully specified; also: GFP fusion in cells (GFP left off))	increased level of β-catenin	dramatically increased the total amount of cellular β-catenin and promoted the translocation of β-catenin into the nucleus	increased level of β-catenin	does not affect the binding of GSK3β; also recorded: not affected by the presence of Axin	significantly induced TOP-flash activity; also recorded: significantly activated Wnt/β-catenin signaling	dramatically increased the total amount of cellular β-catenin and promoted the translocation of β-catenin into the nucleus	without the induction of phosphorylation of Ser9 in GSK3β	suppressed phosphorylation of glycogen synthase	–
B1	–	–	–	–	–	–	–	–	bound to LRP6 miniCL only in the presence of GSK3β; also recorded: bound to the LRP6 miniCL fragment only when GSK3β was co-incubated
